In the SangsterLogP compilation:

details: not given

SMILES	logP
CCOP(=S)(OCC)Oc1ccc(S(C)=O)cc1 (centres undefined)	2.23
COP(=S)(OC)Oc1cc(Cl)c(Br)cc1Cl	4.88
CCOP(=S)(OCC)Oc1ccc(S(C)(=O)=O)cc1	2.56
COP(=S)(Oc1cc(Cl)c(Br)cc1Cl)c1ccccc1 (centres undefined)	5.88
CCOP(=S)(OCC)Oc1cc(C)nc(N(CC)CC)n1	4.85
CCOP(=S)(OCC)Oc1cc(C)nc(C(C)C)n1	3.81
COP(=O)(OC)SCn1nnc2ccccc2c1=O	0.78
CCOP(=O)(OCC)Oc1ccc([N+](=O)[O-])cc1	1.98
COP(=S)(OC)SCN1C(=O)c2ccccc2C1=O	2.78
CCOP(=S)(OCC)Oc1ccc(N)cc1	2.6
Cc1cc(Cl)ccc1/N=C/N(C)C	2.89
CCOP(=S)(OCC)SCCS(=O)(=O)CC	1.87
CCOP(=S)(OCC)Oc1ccc(SC)cc1	4.16
CCOP(=O)(OCC)SCS(=O)(=O)CC	1.98
COP(=O)(Oc1cc(Cl)c(Br)cc1Cl)c1ccccc1 (centres undefined)	4.58
CCOP(=S)(OCC)Oc1cc(Cl)c(Br)cc1Cl	5.68
COP(=S)(OC)SCSc1ccc(Cl)cc1	4.82
CCOP(=O)(OCC)Oc1cc(C)nc(C(C)C)n1	2.07

same assay, conditions: pH 9.0

SMILES	logD
CNC(=O)Oc1ccc(N(C)C)c(C)c1	1.9
